We go through six compounds from article PMC4899718, “Establishing Virulence Associated Polyphosphate Kinase 2 as a drug target for Mycobacterium tuberculosis” (Scientific Reports, 2016).

Bounds are passed on as bounds.

For assay [1], the target named is T1, PPK-2 (MBP-PPK-2) (Mycobacterium tuberculosis, UniProt O05877).
T1 construct: gene ppk2

Assay [2] deals with T1, PPK-2 (MBP-PPK-2). The assay can be described thus: luciferase-based ATP synthesis endpoint assay. The class given is biochemical.

T1 sequence (O05877 whole entry, looked up): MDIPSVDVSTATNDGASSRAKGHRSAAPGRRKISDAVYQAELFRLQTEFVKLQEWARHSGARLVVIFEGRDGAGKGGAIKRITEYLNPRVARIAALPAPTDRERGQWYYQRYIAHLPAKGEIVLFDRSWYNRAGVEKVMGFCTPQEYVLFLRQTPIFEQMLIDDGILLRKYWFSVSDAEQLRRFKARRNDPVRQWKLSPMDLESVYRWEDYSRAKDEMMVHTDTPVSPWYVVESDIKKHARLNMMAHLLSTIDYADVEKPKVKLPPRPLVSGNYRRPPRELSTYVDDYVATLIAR

Turning to `Nc1ncnc2c1ncn2[C@@H]1O[C@H](COP(=O)(O)OP(=O)(O)O)[C@@H](O)[C@H]1O` [ADP], at PPK-2 (MBP-PPK-2) [1], the “luciferase-based ATP quantification” value is “ATP synthetic activity of PPK-2 increased in the presence of both ADP and enzyme”.
`O=c1cc2oc3cc(O)c(O)cc3c(-c3ccccc3O)c-2cc1O` [NSC-9037]: the inhibition (as a rule, the drop in the measured response relative to a control, in per cent) at 100 µM against PPK-2 (MBP-PPK-2) [2] was above 80%.
`CCOc1ccc(Nc2c3ccccc3nc3ccccc23)cc1` [NSC-30205] yielded an inhibition at 100 µM on PPK-2 (MBP-PPK-2) [2] above 80%.
`O=c1c(O)cccc2cc(O)c(O)c(O)c12` [NSC-35676]: at PPK-2 (MBP-PPK-2) [2] (PolyP17 10 μM as phosphate donor, 10 mM MgCl2, pH 7.4, 37 °C, 10 min pre-incubation, luciferase counter-screened), the % inhibition (in general, the relative decrease from the control value, in per cent) at 100 μM is given as above 80%.
For `CC1Oc2cc3c(-c4c(O)cc(O)c5c(O)c6c(cc45)OC(C)C(C)C6=O)c(O)cc(O)c3c(O)c2C(=O)C1C` (stereo not drawn) [NSC-345647], the inhibition at 100 µM on PPK-2 (MBP-PPK-2) [2] was above 80%.
On to `O=P(O)(O)OP(=O)(O)OP(=O)(O)O` [PolyP3], for which, on PPK-2 (MBP-PPK-2) [1], the “luciferase-based ATP quantification” value is “MBP-PPK-2 could also utilize short chain polyphosphates, PolyP3 as the phosphate donor”.
